Test results from patent US12433954B2, “Methods of activating anti-CD19 chimeric antigen receptor (CAR) T cells using amphiphilic ligand conjugates comprising CAR-targeting protein sequence motifs” (Massachusetts Institute of Technology, priority 2020, dated 2025).
pKd: −log10 of the molar value. Ends that are not written are not given here.

Experiments:
[1] = molecular target: FMC63 scFv; assay: Yeast clone staining with biotinylated FMC63 scFv, Kd by FACS; type: binding, mouse; settings: yeast clones, biotinylated FMC63 scFv monomer
Sequence of FMC63 scFv (as listed by the source): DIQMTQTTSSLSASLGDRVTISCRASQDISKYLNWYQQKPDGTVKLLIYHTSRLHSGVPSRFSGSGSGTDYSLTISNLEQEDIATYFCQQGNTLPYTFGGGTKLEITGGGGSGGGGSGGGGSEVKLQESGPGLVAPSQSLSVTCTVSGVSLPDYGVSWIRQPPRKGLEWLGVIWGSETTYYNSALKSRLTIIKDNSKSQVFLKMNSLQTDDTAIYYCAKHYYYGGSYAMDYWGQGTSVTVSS
Method: FIGS. 10A & 10B provide graphs showing binding of yeast clones expressing the indicated mimotopes to biotinylated FMC63 IgG (FIG. 10A) or biotinylated FMC63 scFv (FIG. 10B) at increasing concentration (0.01-1000 nM).
Identifying specific mimotope clones of varying affinities will provide flexibility in treatments. In order to validate specific sequences, clones were isolated and measured for their affinity to FMC63. Specifically, a subset of mimotope clones were selected from the fixed library sequence described in Example 5. […] Given the FDA-approved CAR is an scFV derived from the parental IgG, mimotope binding to FMC63-scFv monomer was tested using biotinylated FMC63 scFV to measure Kd by FACS (FIG. 10B). […] This screen positively identified mimotope clones with varying affinities to FMC63 which may be used for a tailored vaccine approach.

[2] = molecular target: FMC63 IgG; assay: Yeast clone staining with biotinylated FMC63 IgG, Kd from MFI (FACS); type: binding, mouse; settings: yeast clones, 0.01-1000 nM biotinylated FMC63 IgG
Sequence of FMC63 IgG (as listed by the source): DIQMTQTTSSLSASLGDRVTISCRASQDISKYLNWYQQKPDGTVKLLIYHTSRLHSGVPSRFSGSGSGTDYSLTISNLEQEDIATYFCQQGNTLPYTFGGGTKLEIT
Sequence of FMC63 IgG (as listed by the source): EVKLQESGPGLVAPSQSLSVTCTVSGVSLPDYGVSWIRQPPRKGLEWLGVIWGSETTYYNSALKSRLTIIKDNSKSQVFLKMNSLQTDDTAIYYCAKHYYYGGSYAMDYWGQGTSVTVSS
Description: In order to validate specific sequences, clones were isolated and measured for their affinity to FMC63. Specifically, a subset of mimotope clones were selected from the fixed library sequence described in Example 5.

[3] = system: FMC63 CAR T cells; assay: Long-term in vivo boosting, CAR T expansion in peripheral blood; settings: day 13; vaccinations day 2 and day 9 with 25 μg cyclic-di-GMP; lymphodepleted mice; vs control mice
Description: FIG. 19A depicts a timeline for administration of CD45.1+ donor FMC63 CAR T cells to CD45.2+ recipient mice on Day 1 following lymphodepletion on day 0. The mice were further administered a first dose of amph-mimotope or bivalent amph-mimotope on Day 2 and a second dose on Day 9. Peripheral blood was obtained from the mice on Day 13 and expansion of CD45.1+ CAR T cells were quantified by flow cytometry. FIG. 19B provides plots measuring the percentage of total T cells expressing CD45.1 and FMC63 CAR in peripheral blood isolated on day 13 from mice treated according to FIG. 19A. […] Control mice received no vaccination. […] Briefly, CD45.2^+ recipient mice received lymphodepeletion preconditioning (sublethal irradiation, 500cGy) on day 0. The mice were then administered 1×10^6 CD45.1^+ donor FMC63 CAR T cells on day 1, followed by two vaccinations on day 2 and day 9 using the following formulation: • (i) 10 ug of monovalent amph-mimotope (Amph-K-C2)+25 μg of cyclic-di-GMP in 1×PBS; or • (ii) 20 ug of amph-Bi-F12-mimotope (PEG4 or PEG8)+25 μg of cyclic-di-GMP in 1×PBS. Control mice received no vaccination. On day 13, peripheral blood was collected for analysis of CAR T expansion in response to amph-mimotope vaccine boosting by flow cytometry. CAR T cells were defined as CD45.1^+CAR^+ cells and were quantified as proportion of total CD8+ T cells.

| pKd [1] | pKd [2] | Substance | expansion of CAR T cells (CD45.1+CAR+ of total CD8+ T cells) in peripheral blood [3] |
| --- | --- | --- | --- |
| < 6.00 | < 6.00 | D12 (RICPWSCRAP; Synthetic FMC63 Mimotope (D12)) [Clone D12] |  |
|  |  | amph-bi-F12-peg8 (GGGSASRICPWNCKEL; not fully specified (C-terminus); cysteine pairing not given here; also: bivalent amphiphile conjugate via C-terminal PEG8 linker) | highest level of proliferation |
